Measured values: patent publication US20190112357A1, “PREVENTION OF PROTEIN DISULFIDE BOND REDUCTION” (MedImmune, LLC, priority 2016, published 2019)

Key:
Assay type in all cases: physicochemical
[1] = Antibody reduction potential assay (Vacuum/GX); details: EDTA 9.5, 19, 38 mM or Cystine 4 and 8 mM
Description: Bioreactor samples (1 mL) were obtained daily and centrifuged at 3000-4000 RPM and the supernatant was frozen immediately at −80° C. On the day prior to the assay, the samples were removed from −80° C. storage, thawed, and placed in a vacuum chamber at room temperature overnight to induce reduction of the monoclonal antibody without the interference of oxygen. After the vacuum hold, the samples were analyzed for protein fragmentation under non-reducing conditions using a BioAnalyzer system (Agilent Technologies) or a LABCHIP® GXII system (PerkinElmer) to detect antibody fragments resulting from the breakage of the antibody's interchain disulfide bonds. […]
Samples were stored frozen until analyzed. […] After being denatured and the free thiols being capped by NEM, the samples were analyzed using a Perkin Elmer Labchip® GXII (Perkin Elmer, Waltham, Mass.) to perform size fractionation and quantification. Using the Labchip® GXII, the protein and fragments were detected by laser-induced fluorescence and translated into gel-like images (bands) and electropherograms (peaks).
Reduction potential, i.e. the potential of the molecule to be reduced under anaerobic condition, was measured by subjecting samples to vacuum analysis as described above followed addition of non-reducing sample buffer. […]

[2] = Antibody aggregation analysis (HP-SEC); details: EDTA 9.5, 19, 38 mM or Cystine 4 and 8 mM
Description: The percent of antibody aggregates was determined using standard size exclusion chromatography (HP-SEC) methods. An Agilent 1200 series system was used with a Tosoh Bioscience TSKgel G3000SW XL column (Tosoh Bioscience LLC, King of Prussia, Pa.) (7.8 mm×300 mm) at 1 mL/min flow rate using a mobile phase buffer of 0.1 M sodium phosphate, 0.1 M sodium sulfate, pH 6.8. The absorbance chromatography at 280 nm was used to quantify the results.

[3] = Non-reduced GX (NR-GX) analysis of HCCF and purification products; details: 2 weeks at 2° C.-8° C., bags without headspace
Description: Samples were stored frozen until analyzed. Once thawed, 400-600 μL of each sample was transferred to culture tubes and mixed in non-reducing sample buffer containing N-Ethylmaleimide (NEM). After being denatured and the free thiols being capped by NEM, the samples were analyzed using a Perkin Elmer Labchip® GXII (Perkin Elmer, Waltham, Mass.) to perform size fractionation and quantification. Using the Labchip® GXII, the protein and fragments were detected by laser-induced fluorescence and translated into gel-like images (bands) and electropherograms (peaks).
The high levels of impurities were first detected in the capture product and were carried through the subsequent steps in the process.

[4] = Free thiol quantitation in HCCF by disulfide mapping mass spectrometry; details: 2 mM cystine, 2 week hold, versus starting material
Description: The amount of free thiol in harvested cell culture fluid was determined by matching predicted masses of disulfide-linked peptides to observed masses from non-reducing Lys-C peptide mapping. Briefly, the sample was denatured and diluted prior to digestion with a serine protease. Following protease digestion, half of each reaction mixture was reduced by the addition of DTT. The digests were separated by RP-HPLC using a C18 column and analyzed using a UV-detector and an on-line mass spectrometer. Disulfide-bond linked peptides are only present in non-reducing runs and will disappear under reducing conditions.

reduction potential at the time of harvest of sheared mAb E material [1]: no reduction potential | aggregation of sheared mAb E material after 8 days at 2-8° C. [2]: limited the extent of mAb aggregation | reduction of mAb B in HCCF by the end of the hold (NR-GX) ([3]; 2 mM cystine): reduction had set in | reduction of mAb B in HCCF by the end of the hold (NR-GX) ([3]; 4 mM cystine): no signs of reduction | inter-chain free thiol in HCCF by the end of the hold [4]: higher level of inter-chain free thiol
SMILES: N[C@@H](CSSC[C@H](N)C(=O)O)C(=O)O [cystine, L-cystine]
